The subject of one series is P. falciparum 3D7. As to the kind of experiment: 3-day SYBR Green I growth inhibition assay (GIA), strain 3D7. As to conditions: 3-day SYBR Green I GIA, drug-sensitive strain 3D7; read-out: Antiplasmodial activity EC50, 3D7. In kind it is cell-based, Plasmodium falciparum. As to the method:
(§1) A 3-day SYBR Green I inhibition EC50 assay was performed as described previously. Briefly, highly synchronized ring-stage parasites by 5% sorbitol (1% parasitemia and 2% hematocrit) were incubated in a 96-well plate with compounds in a total volume of 200 μL. […] The parasites were cultured for 72 h before SYBR Green I staining as described above. The EC50 was calculated by GraphPad Prism. DHA was used as a positive control, and the final concentration of DMSO was 1%.

For another series, the system named is P. falciparum Dd2. The series is described as follows: 3-day SYBR Green I GIA, multidrug-resistant strain Dd2. The class given is cell-based, Plasmodium falciparum. Particulars: 3-day SYBR Green I GIA, multidrug-resistant strain Dd2; read-out: Antiplasmodial activity EC50, Dd2. The procedure:
as §1

In a further series the test system is 293T cells. As to the kind of experiment: In vitro cytotoxicity analysis (CellTiter-Glo), 293T. Particulars: for EC50: read-out: Cytotoxicity EC50, 293T, 72 h, CellTiter-Glo. The procedure:
(§2) In all, 1% DMSO was used as a negative control. The inhibition of each drug was normalized to that of the DMSO control. EC50 was calculated by GraphPad Prism. Three independent assays with two technical replicates each time were conducted in this experiment.

A further series deals with HepG2 cells. The series is described as follows: In vitro cytotoxicity analysis (CellTiter-Glo), HepG2. Particulars: for EC50: read-out: Cytotoxicity EC50, HepG2, 72 h, CellTiter-Glo. As to the method:
as §2

20 compounds from publication PMC7733455, “A novel multistage antiplasmodial inhibitor targeting Plasmodium falciparum histone deacetylase 1” (Cell Discovery, 2020) can be followed below.

In the case of `CN(Cc1cn(C)c2ccccc12)C1CCN(c2ncc(C(=O)NO)cn2)CC1.Cl` [JX21005], the EC50 was found to be 0.0736 ± 0.0035 µM in the series with P. falciparum 3D7, 0.107 ± 0.0056 µM in the series on P. falciparum Dd2, 1.98 ± 0.407 µM in the series with 293T cells and 0.643 ± 0.036 µM in the series with HepG2 cells. The “Selectivity index for 293T (EC50 293T/EC50 3D7)” value (from here on “Selectivity index for 293T”) with 293T cells is given as 27. Moreover, the “Selectivity index for HepG2 (EC50 HepG2/EC50 3D7)” value (shortened to “Selectivity index for HepG2”) with HepG2 cells came out at 9.

On to `Cl.Cn1cc(CN2CCC(CNc3ncc(C(=O)NO)cn3)CC2)c2ccccc21` [JX21008], for which the EC50 with P. falciparum 3D7 came to 0.0131 ± 0.0006 µM; in the series with P. falciparum Dd2, 0.0236 ± 0.0004 µM; in the series with 293T cells it was 0.253 ± 0.089 µM; in the series on HepG2 cells, 0.688 ± 0.01 µM. The “Selectivity index for 293T” value in the series on 293T cells was determined as 19. In addition, the “Selectivity index for HepG2” value in the series with HepG2 cells is 52.

For the compound `Cl.Cn1cc(CN2CCN(c3ncc(C(=O)NO)cn3)CC2)c2ccccc21` [JX21003], the EC50 came out at 0.0109 ± 0.0008 µM with P. falciparum 3D7, 0.0153 ± 0.0004 µM in the series on P. falciparum Dd2, 0.047 ± 0.021 µM in the series with 293T cells and 0.044 ± 0.007 µM in the series with HepG2 cells. Further, the “Selectivity index for 293T” value in the series on 293T cells was determined as 4. Further, the “Selectivity index for HepG2” value in the series with HepG2 cells was 4.

For `Cl.O=C(NO)c1cnc(N2CCC3(CCN(Cc4ccsc4)C3)C2)nc1` (centres unmarked) [JX21120], the EC50 stood at 0.0186 ± 0.0039 µM in the series with P. falciparum 3D7, 0.0232 ± 0.0012 µM in the series with P. falciparum Dd2, 3.93 ± 0.374 µM in the series with 293T cells and 2.12 ± 0.165 µM in the series with HepG2 cells. The “Selectivity index for 293T” value in the series on 293T cells worked out at 211. For the same compound, in the series with HepG2 cells, the “Selectivity index for HepG2” value is listed as 114.

As to `Cl.O=C(NO)c1cnc(N2CCC3(CCN(Cc4coc5ccccc45)C3)C2)nc1` (centres unmarked) [JX21113], the EC50 was 0.0675 ± 0.0053 µM with P. falciparum 3D7, 0.112 ± 0.0131 µM in the series with P. falciparum Dd2, 3.02 ± 0.067 µM in the series on 293T cells and > 10 µM in the series with HepG2 cells. In addition, the “Selectivity index for 293T” value with 293T cells is on record as 45. In addition, the “Selectivity index for HepG2” value with HepG2 cells was > 148.

For `Cl.Cn1cc(CNC2CCC(Nc3ncc(C(=O)NO)cn3)CC2)c2ccccc21` (centres unmarked) [JX21022], the EC50 in the series on P. falciparum 3D7 is 0.151 ± 0.0027 µM; in the series on P. falciparum Dd2, 0.125 ± 0.0045 µM; in the series with 293T cells, > 10 µM; in the series on HepG2 cells it was > 10 µM. The “Selectivity index for 293T” value in the series with 293T cells is listed as > 66. In addition, the “Selectivity index for HepG2” value in the series with HepG2 cells is > 66.

As for `Cl.Cn1cc(CNC2CCN(c3ncc(C(=O)NO)cn3)CC2)c2ccccc21` [JX21004], the EC50 in the series with P. falciparum 3D7 turned out to be 0.0329 ± 0.0009 µM; with P. falciparum Dd2 it was 0.061 ± 0.0004 µM; in the series on 293T cells it was 0.519 ± 0.112 µM; in the series with HepG2 cells it was 0.294 ± 0.057 µM. Also, the “Selectivity index for 293T” value in the series with 293T cells is on record as 16. Also, the “Selectivity index for HepG2” value in the series on HepG2 cells amounted to 9.

For `Cl.O=C(NO)c1cnc(N2CCC3(CCN(CC4CCCC4)C3)C2)nc1` (centres unmarked) [JX21121], the EC50 in the series with P. falciparum 3D7 was 0.0925 ± 0.0113 µM; in the series on P. falciparum Dd2, 0.0616 ± 0.0048 µM; with 293T cells it was > 10 µM; with HepG2 cells, > 10 µM. Further, the “Selectivity index for 293T” value in the series on 293T cells is reported as > 108. The “Selectivity index for HepG2” value in the series on HepG2 cells was > 108.

Consider `Cl.O=C(NO)c1cnc(N2CCC3(CCN(Cc4ccc(-c5ccccc5)cc4)C3)C2)nc1` (centres unmarked) [JX21116], for which the EC50 with P. falciparum 3D7 was found to be 0.0217 ± 0.0002 µM; in the series on P. falciparum Dd2, 0.0339 ± 0.0003 µM; in the series on 293T cells, 2.41 ± 0.118 µM; in the series with HepG2 cells, 2.96 ± 0.152 µM. For the same compound, the “Selectivity index for 293T” value in the series on 293T cells amounted to 111. Also, the “Selectivity index for HepG2” value with HepG2 cells was 137.

For the compound `Cl.O=C(NO)c1cnc(N2CCC3(CCN(Cc4ccccc4)C3)C2)nc1` (centres unmarked) [JX21105], the EC50 in the series with P. falciparum 3D7 is 0.0178 ± 0.0005 µM; with P. falciparum Dd2, 0.0286 ± 0.0018 µM; in the series on 293T cells it was 1.79 ± 0.037 µM; in the series on HepG2 cells it was 1.2 ± 0.068 µM. The “Selectivity index for 293T” value with 293T cells was 101. Further, the “Selectivity index for HepG2” value in the series on HepG2 cells was found to be 68.

Consider `Cl.O=C(NO)c1cnc(N2CCC3(CCN(Cc4ccc5ncccc5c4)C3)C2)nc1` (centres unmarked) [JX21137], for which the EC50 with P. falciparum 3D7 came out at 0.007 ± 0.0004 µM; in the series with P. falciparum Dd2, 0.0096 ± 0.0005 µM; in the series on 293T cells, 1.77 ± 0.028 µM; in the series on HepG2 cells, 1.25 ± 0.19 µM. In the series with 293T cells, the “Selectivity index for 293T” value is reported as 254. Further, the “Selectivity index for HepG2” value in the series with HepG2 cells is reported as 179.

As for `Cl.O=C(NO)c1cnc(N2CCC3(CCN(Cc4cccnc4)C3)C2)nc1` (centres unmarked) [JX21119], the EC50 in the series with P. falciparum 3D7 came out at 0.0533 ± 0.0005 µM; in the series on P. falciparum Dd2 it was 0.039 ± 0.004 µM; in the series on 293T cells, 6.998 ± 0.057 µM; in the series with HepG2 cells it was 6.42 ± 0.54 µM. The “Selectivity index for 293T” value in the series on 293T cells was 131. In the series with HepG2 cells, the “Selectivity index for HepG2” value turned out to be 120.

As to `Cl.O=C(NO)c1cnc(N2CCC3(CCN(Cc4ccnc5ccccc45)C3)C2)nc1` (centres unmarked) [JX21114], the EC50 in the series with P. falciparum 3D7 amounted to 0.0459 ± 0.0118 µM; with P. falciparum Dd2, 0.0762 ± 0.0099 µM; in the series on 293T cells it was 1.859 ± 0.012 µM; in the series with HepG2 cells it was 3.93 ± 0.537 µM. Moreover, in the series with 293T cells, the “Selectivity index for 293T” value was determined as 41. Also, the “Selectivity index for HepG2” value in the series on HepG2 cells came out at 86.

As for `Cl.Cn1cc(CN2CCC3(CCCN3c3ncc(C(=O)NO)cn3)CC2)c2ccccc21` [JX21019], the half-maximal effective concentration (EC50) was 0.0452 ± 0.0012 µM with P. falciparum 3D7, 0.0387 ± 0.0006 µM in the series on P. falciparum Dd2, 1 ± 0.208 µM in the series with 293T cells and 0.875 ± 0.07 µM with HepG2 cells. Also, the “Selectivity index for 293T” value in the series with 293T cells came to 22. Also, the “Selectivity index for HepG2” value in the series with HepG2 cells is recorded as 19.

For the compound `Cl.Cn1cc(CN2CCC3(CCN(c4ncc(C(=O)NO)cn4)C3)C2)c2ccc(F)cc21` (centres unmarked) [JX21106], the EC50 came to 0.002 ± 0.0009 µM with P. falciparum 3D7, 0.0036 ± 8e-05 µM with P. falciparum Dd2, 0.402 ± 0.096 µM in the series with 293T cells and 0.178 ± 0.004 µM in the series on HepG2 cells. For the same compound, the “Selectivity index for 293T” value with 293T cells turned out to be 198. Also, in the series with HepG2 cells, the “Selectivity index for HepG2” value was 88.

Turning to `Cl.Cn1cc(CN2CCC3(CC2)CCN(c2ncc(C(=O)NO)cn2)CC3)c2ccccc21` [JX21010], the EC50 in the series with P. falciparum 3D7 was 0.0234 ± 0.0024 µM; in the series on P. falciparum Dd2, 0.0311 ± 0.0046 µM; with 293T cells, 2.21 ± 0.226 µM; in the series on HepG2 cells, 0.904 ± 0.018 µM. Further, the “Selectivity index for 293T” value in the series on 293T cells is given as 94. For the same compound, the “Selectivity index for HepG2” value in the series with HepG2 cells is 39.

Turning to `Cl.O=C(NO)c1cnc(N2CCC3(CCN(Cc4cccs4)C3)C2)nc1` (centres unmarked) [JX21110], the EC50 in the series on P. falciparum 3D7 turned out to be 0.0497 ± 0.0011 µM; with P. falciparum Dd2, 0.0354 ± 0.0013 µM; in the series on 293T cells it was 4.54 ± 0.323 µM; in the series with HepG2 cells, 1.69 ± 0.163 µM. For the same compound, in the series with 293T cells, the “Selectivity index for 293T” value is 91. For the same compound, the “Selectivity index for HepG2” value with HepG2 cells came out at 34.

As to `O=C(NO)c1cnc(N2CCN(S(=O)(=O)c3ccc4ccccc4c3)CC2)nc1` [R306465, reference compound], the EC50 in the series with P. falciparum 3D7 amounted to 0.023 µM. For the same compound, in the series on 293T cells, the “Selectivity index for 293T” value stood at 287 and the EC50 was found to be 6.6 µM. Besides, in the series with HepG2 cells, the “Selectivity index for HepG2” value was 38 and the EC50 was 0.877 µM.

Take `Cl.Cn1cc(CN2CCC3(CC2)CN(c2ncc(C(=O)NO)cn2)C3)c2ccccc21` [JX21013]: the half-maximal effective concentration (EC50) in the series with P. falciparum 3D7 is 0.0792 ± 0.0024 µM; in the series with P. falciparum Dd2, 0.044 ± 0.01 µM; in the series on 293T cells, > 10 µM; in the series with HepG2 cells, > 10 µM. For the same compound, the “Selectivity index for 293T” value in the series on 293T cells is recorded as > 126. For the same compound, the “Selectivity index for HepG2” value with HepG2 cells is on record as > 126.

As to `Cl.O=C(NO)c1cnc(N2CCC3(CCN(CC4CCCCC4)C3)C2)nc1` (centres unmarked) [JX21112], the EC50 stood at 0.0404 ± 0.0041 µM in the series on P. falciparum 3D7, 0.0283 ± 0.0038 µM with P. falciparum Dd2, 0.607 ± 0.042 µM in the series on 293T cells and 2.49 ± 0.52 µM in the series on HepG2 cells. In addition, the “Selectivity index for 293T” value in the series on 293T cells amounted to 15. The “Selectivity index for HepG2” value in the series with HepG2 cells worked out at 62.
